Each compound was assayed against T1, ERRγ (Homo sapiens, UniProt P62508) (assay: Full-length ERRγ luciferase reporter assay (ERRE reporter, HEK293 cells)). Conditions: HEK293 cells transfected with ERRE reporter and pcDNA3.1 ERRγ, 24 hours treatment.
T1 construct: Data for selected compounds in the full-length; expressed in transfected cells; host or cells: HEK293
T1 sequence (P62508 1-458): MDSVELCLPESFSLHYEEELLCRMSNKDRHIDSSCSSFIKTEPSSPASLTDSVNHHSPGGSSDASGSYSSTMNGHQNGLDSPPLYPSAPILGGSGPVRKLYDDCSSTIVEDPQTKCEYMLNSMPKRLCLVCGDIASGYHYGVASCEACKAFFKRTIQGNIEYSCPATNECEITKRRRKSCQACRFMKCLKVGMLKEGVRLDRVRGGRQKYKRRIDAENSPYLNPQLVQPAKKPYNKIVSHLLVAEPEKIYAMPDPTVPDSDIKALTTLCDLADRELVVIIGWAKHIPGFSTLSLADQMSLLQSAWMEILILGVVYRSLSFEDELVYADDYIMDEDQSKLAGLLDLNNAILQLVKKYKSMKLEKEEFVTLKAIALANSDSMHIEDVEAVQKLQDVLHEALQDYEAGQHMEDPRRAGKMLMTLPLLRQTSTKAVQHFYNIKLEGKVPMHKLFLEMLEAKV
Type: cell-based
Experimental: Luciferase Assay. HEK293 cells were maintained in Dulbecco's modified Eagles medium (DMEM) supplemented with 10% fetal bovine serum at 37° C. under 5% CO2. […] Cells were transfected with ERRE reporter construct and pcDNA3.1 ERRγ. 24 hour post-transfection, the cells were treated with vehicle or compound for 24 hours.

| SMILES | EC50 [nM] |
| --- | --- |
| O=C(Nc1ccc(O)cc1)c1ccc(-c2ccc(C(F)(F)F)cc2)s1 [Compound 114] | 2680 |
| O=C(Nc1cccc(F)c1)c1ccc(-c2ccc(B(O)O)cc2)s1 [Compound 8, (4-(5-((3-fluorophenyl)carbamoyl)thiophen-2-yl)phenyl)boronic acid] | 89 |
| O=C(Nc1cccc(O)c1)c1ccc(-c2ccsc2)s1 [Compound 74] | 1010 |
| O=C(Nc1ccc(Cl)cc1)c1cc(-c2cccc(O)c2)[nH]n1 [Compound 125] | > 25000 |
| O=C(Nc1cccc(F)c1)c1ccc(-c2ccc(O)cc2)o1 [Compound 157] | 3400 |

The next lines start with the values.

| EC50 [nM] | SMILES |
| --- | --- |
| 734 | O=C(Nc1ccc2ccccc2c1)c1cc(-c2ccc(O)cc2)[nH]n1 [Compound 122] |
| 563 | O=C(Nc1cccc(B(O)O)c1)c1ccc(-c2cccc(F)c2)s1 [Compound 50] |
| 3500 | O=C(NC1CCC(O)CC1)c1ccc(-c2ccccc2)o1 (stereo not drawn) [Compound 135] |

Each compound was assayed against T2, ERR gamma protein (Homo sapiens, UniProt P62508) (assay: Protein thermal shift assay). Conditions: compound at 20 μM; ERR gamma protein 0.1 mg/mL, SYPRO-Orange; read-out: T.S. (thermal shift) range.
T2 sequence (P62508 1-458): T1 sequence (P62508 1-458)
Type: binding
Experimental: Six replicate reactions were set up and run in Applied Biosystems Quantstudio 7 Real-Time PCR system. Data were collected at a ramp rate of 0.05° C./s from 24° C. through 95° C. and analyzed using Protein Thermal Shift Software 1.3.

| SMILES | ΔTm at 20 µM [°C] |
| --- | --- |
| O=C(Nc1ccc(O)cc1)c1ccc(-c2ccc(C(F)(F)F)cc2)s1 [Compound 114] | 2 to 4 |
| O=C(Nc1ccc(Cl)cc1)c1cc(-c2cccc(O)c2)[nH]n1 [Compound 125] | 2 to 4 |
| O=C(Nc1ccc(O)cc1)c1ccc(-c2cccc(C(F)(F)F)c2)s1 [Compound 110] | 2 to 4 |
| O=C(Nc1cccc(O)c1)c1cnc(-c2ccsc2)o1 [Compound 141] | 0 to 2 |
| CC(C)(C)c1ccc(NC(=O)c2cc(-c3ccc(O)cc3)[nH]n2)cc1 [Compound 129] | 0 to 2 |
| CC(C)(C)c1ccc(NC(=O)c2cc(-c3cccc(O)c3)[nH]n2)cc1 [Compound 128] | 0 to 2 |
| O=C(Nc1ccc2ncsc2c1)c1ccc(-c2ccc(O)cc2)o1 [Compound 41] | 2 to 4 |
| O=C(Nc1ccc(F)cc1)c1ncc(-c2ccc(O)cc2)s1 [Compound 144] | 2 to 4 |
| CC(C)c1cccc(-c2ccc(C(=O)Nc3cccnc3)s2)c1 [Compound 118] | 0 to 2 |
| O=C(Nc1ccc(O)cc1)c1cc(-c2cccc(O)c2)[nH]n1 [Compound 134] | 0 to 2 |
| CC(C)c1ccc(-c2ccc(C(=O)Nc3ccccn3)s2)cc1 [Compound 137] | 0 to 2 |
| COc1ccc(NC(=O)c2ccc(-c3ccc(N)cc3)s2)cc1 [Compound 18] | 0 to 2 |
| O=C(Nc1ccc2ncsc2c1)c1ccc(-c2cccc(O)c2)o1 [Compound 42] | 0 to 2 |
| O=C(Nc1ccc(Cl)cc1)c1cc(-c2ccc(O)cc2)[nH]n1 [Compound 124] | 2 to 4 |
| O=C(Nc1ccc(Cl)cc1)c1ccc(-c2cccc(C(F)(F)F)c2)s1 [Compound 107] | 0 to 2 |
| O=C(Nc1ccccc1F)c1ccc(-c2cccc(C(=O)C(F)(F)F)c2)s1 [Compound 154] | 0 to 2 |
| O=C(Nc1ccc2ccccc2c1)c1ccc(-c2cccc(O)c2)s1 [Compound 53] | > 4 |
| O=C(Nc1cccc(F)c1)c1ccc(-c2cnc(O)nc2)s1 [Compound 58] | 0 to 2 |

Second part, the compound after the results:

| ΔTm at 20 µM [°C] | SMILES |
| --- | --- |
| 2 to 4 | O=C(Nc1ccc2ccccc2c1)c1cc(-c2ccc(O)cc2)[nH]n1 [Compound 122] |
| 2 to 4 | O=C(Nc1cccc(B(O)O)c1)c1ccc(-c2cccc(F)c2)s1 [Compound 50] |
| 2 to 4 | O=C(Nc1cccnc1)c1ccc(-c2ccc3ccccc3c2)s1 [Compound 106] |
| > 4 | O=C(Nc1cccc(F)c1)c1ccc(-c2ccc(O)cc2)s1 [Compound 7, N-(3-fluorophenyl)-5-(4-hydroxyphenyl)thiophene-2-carboxamide] |
| 0 to 2 | O=C(Nc1cccnc1)c1ccc(-c2ccccc2F)s1 [Compound 85] |
| 2 to 4 | Cc1ccc(NC(=O)c2cc(-c3ccc(O)cc3)[nH]n2)cc1 [Compound 127] |
| 0 to 2 | O=C(Nc1ccccc1F)c1ccc(-c2cccc(O)c2)s1 [Compound 63] |
| 0 to 2 | O=C(Nc1cccnc1)c1ccc(-c2cccc(C(F)(F)F)c2)s1 [Compound 108] |
| 0 to 2 | O=C(Nc1ccccc1F)c1ccc(-c2ccc(C(=O)C(F)(F)F)cc2)s1 [Compound 12, N-(2-fluorophenyl)-5-(4-(2,2,2-trifluoroacetyl)phenyl)thiophene-2-carboxamide] |
| > 4 | O=C(Nc1cccc(B(O)O)c1)c1ccc(-c2ccsc2)s1 [Compound 57] |
